Our source for the Ki values is patent US9815796B2 (Merck Sharp & Dohme Corp., priority 2013, dated 2017).

Where two headings read alike, the source gives them in different places.

The target of experiment [1] is Rhesus PDE2A3 (Macaca mulatta, UniProt B3VTJ2). Kind of experiment: PDE2 fluorescence polarization (IMAP FP) inhibition assay, rhesus enzyme. The experiment is classed as biochemical, rhesus macaque. The procedure, abridged: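 IMAP FP (mP from parallel and perpendicular fluorescence against substrate-only control) was read ≥1 h after adding binding reagent. The preceding 60 min room-temperature reaction contained FAM-cAMP (50 nM) and cGMP (1 uM) in pH 7.2 Tris buffer with MgCl2 and DTT. Enzyme was supernatant of sonicated AD293 cells expressing rhesus PDE2A3; compounds were 3-fold titrated, DMSO 1% final.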
Chain of Rhesus PDE2A3 (B3VTJ2 1-941): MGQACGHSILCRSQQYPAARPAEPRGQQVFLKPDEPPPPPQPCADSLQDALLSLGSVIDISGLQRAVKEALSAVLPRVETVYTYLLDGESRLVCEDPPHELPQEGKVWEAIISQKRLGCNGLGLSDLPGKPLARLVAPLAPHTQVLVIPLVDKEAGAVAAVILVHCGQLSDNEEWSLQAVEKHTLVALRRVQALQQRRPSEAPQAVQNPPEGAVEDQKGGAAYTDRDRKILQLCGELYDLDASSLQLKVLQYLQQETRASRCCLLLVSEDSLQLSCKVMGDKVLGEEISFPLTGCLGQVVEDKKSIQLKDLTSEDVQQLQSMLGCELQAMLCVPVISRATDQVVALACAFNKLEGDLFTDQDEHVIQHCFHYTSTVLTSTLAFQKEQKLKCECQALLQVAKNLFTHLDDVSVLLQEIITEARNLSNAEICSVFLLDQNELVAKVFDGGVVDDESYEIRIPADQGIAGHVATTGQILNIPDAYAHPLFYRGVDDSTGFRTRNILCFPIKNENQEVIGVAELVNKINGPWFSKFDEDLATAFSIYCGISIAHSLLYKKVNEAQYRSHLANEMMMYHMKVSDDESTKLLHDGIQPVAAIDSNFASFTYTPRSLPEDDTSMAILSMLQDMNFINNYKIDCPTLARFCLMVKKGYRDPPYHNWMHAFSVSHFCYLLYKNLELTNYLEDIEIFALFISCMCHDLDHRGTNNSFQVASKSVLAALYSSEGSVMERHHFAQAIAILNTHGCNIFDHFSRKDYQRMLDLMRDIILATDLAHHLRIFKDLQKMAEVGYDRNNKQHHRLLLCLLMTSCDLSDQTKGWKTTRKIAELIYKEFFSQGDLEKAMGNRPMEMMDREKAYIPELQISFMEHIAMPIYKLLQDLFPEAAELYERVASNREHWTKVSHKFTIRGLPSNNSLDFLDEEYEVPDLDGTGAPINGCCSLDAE

The target of experiment [2] is human PDE2A1 (Homo sapiens (Human), UniProt O00408). The experiment is described as follows: IMAP FP PDE selectivity panel, human PDE2A1. The experiment is classed as biochemical. An outline of the steps:
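IMAP FP format: substrate 50 nM FAM-cAMP plus 1000 nM cGMP, enzyme (insect-cell GST-tagged human PDE2A1) at ~20% conversion, 60 min reaction at room temperature. Apparent inhibition constants calculated from parallel/perpendicular fluorescence with KM 10,000 nM.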

Where [3] appears, read: Rhesus PDE2, Lab B, read-out: Rhesus PDE2 Ki (nM) - Lab B.
Setting [4] is: Human PDE2, Lab B, read-out: Human PDE2 Ki (nM) - Lab B.
Setting [5] is: Rhesus PDE2, Lab A, read-out: Rhesus PDE2 Ki (nM) - Lab A.
Where [6] appears, read: Human PDE2, Lab A, read-out: Human PDE2 Ki (nM) - Lab A.

Chain of human PDE2A1 (O00408 other isoform, or with tags, fused parts or gaps): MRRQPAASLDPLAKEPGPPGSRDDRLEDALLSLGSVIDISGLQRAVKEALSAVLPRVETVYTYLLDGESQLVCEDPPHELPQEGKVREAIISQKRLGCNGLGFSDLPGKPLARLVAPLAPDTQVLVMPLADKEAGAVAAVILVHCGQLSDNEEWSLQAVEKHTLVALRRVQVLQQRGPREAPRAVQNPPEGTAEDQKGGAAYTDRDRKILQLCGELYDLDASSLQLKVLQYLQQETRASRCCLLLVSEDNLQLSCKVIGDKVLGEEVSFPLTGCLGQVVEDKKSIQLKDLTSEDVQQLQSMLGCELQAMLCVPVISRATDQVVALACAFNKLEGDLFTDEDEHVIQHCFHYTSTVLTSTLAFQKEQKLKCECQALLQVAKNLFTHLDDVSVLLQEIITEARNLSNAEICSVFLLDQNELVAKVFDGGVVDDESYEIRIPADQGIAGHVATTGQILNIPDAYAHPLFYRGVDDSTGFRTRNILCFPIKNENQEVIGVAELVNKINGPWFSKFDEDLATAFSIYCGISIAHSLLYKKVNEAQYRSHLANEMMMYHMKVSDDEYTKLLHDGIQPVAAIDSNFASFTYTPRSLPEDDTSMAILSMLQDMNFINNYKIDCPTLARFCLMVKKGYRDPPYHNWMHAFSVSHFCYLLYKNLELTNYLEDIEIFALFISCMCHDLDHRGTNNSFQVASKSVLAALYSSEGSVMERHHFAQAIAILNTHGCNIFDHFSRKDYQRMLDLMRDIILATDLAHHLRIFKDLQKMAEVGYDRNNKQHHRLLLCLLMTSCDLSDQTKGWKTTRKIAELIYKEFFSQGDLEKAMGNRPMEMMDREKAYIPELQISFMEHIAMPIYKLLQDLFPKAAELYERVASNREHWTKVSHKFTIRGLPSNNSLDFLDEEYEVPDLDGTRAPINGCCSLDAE

With `COc1ccc(Cc2nc(C(=O)N[C@@H](c3ccc(C(F)(F)F)c(F)c3)C(C)(C)C)cc(=O)[nH]2)cc1` [Example 466, N-{(1R)-1-[3-fluoro-4-(trifluoromethyl)phenyl]-2,2-dimethylpropyl}-2-(4-methoxybenzyl)-6-oxo-1,6-dihydropyrimidine-4-carboxamide], the Ki amounted to 0.85 nM in experiment [1] (setting [3]) and 0.79 nM in experiment [2] (setting [4]).
Consider `O=C(NC(CO)c1ccc(C(F)(F)F)cc1)c1cc(=O)[nH]c(C2CC2)n1` (stereo not drawn) [Example 294, 2-cyclopropyl-N-{2-hydroxy-1-[4-(trifluoromethyl)phenyl]ethyl}-6-oxo-1,6-dihydropyrimidine-4-carboxamide], for which the figures for the Ki in experiment [1] (setting [5]) and in experiment [2] (setting [6]) were 69 nM and 46 nM, respectively.
Regarding `COc1ccc(Cc2nc(C(=O)N[C@@H](c3ccc(OC(F)(F)F)cc3)C(C)C)cc(=O)[nH]2)cc1` [Example 475, 2-(4-methoxybenzyl)-N-{(1R)-2-methyl-1-[4-(trifluoromethoxy)phenyl]propyl}-6-oxo-1,6-dihydropyrimidine-4-carboxamide], the Ki in experiment [1] (setting [3]) and in experiment [2] (setting [4]) was 1.3 nM in each case.
Take `O=C(NC1(c2ccc(OC(F)(F)F)cc2)CC1)c1cc(=O)[nH]c(-c2ccccc2)n1` [Example 277, 6-oxo-2-phenyl-N-{1-[4-(trifluoromethoxy)phenyl]cyclopropyl}-1,6-dihydropyrimidine-4-carboxamide]: the Ki in experiment [1] (setting [5]) amounted to 6.6 nM; in experiment [2] (setting [6]) it was 5.6 nM.
Turning to `C[C@@H](NC(=O)c1cc(=O)[nH]c(-c2ncccn2)n1)c1ccc(C(F)(F)F)c(F)c1` [Example 98, N-{(1R)-1-[3-fluoro-4-(trifluoromethyl)phenyl]ethyl}-6-oxo-1,6-dihydro-2,2′-bipyrimidine-4-carboxamide], the Ki was 8.8 nM in experiment [1] (setting [5]), 12 nM in experiment [1] (setting [3]) and 15 nM in experiment [2] (setting [4]).
Consider `COc1ccc(Cc2nc(C(=O)N[C@@H](c3ccc(SC(F)(F)F)cc3)C3CC3)cc(=O)[nH]2)cc1` [Example 479, N-[(R)-cyclopropyl{4-[(trifluoromethyl)sulfanyl]phenyl}methyl]-2-(4-methoxybenzyl)-6-oxo-1,6-dihydropyrimidine-4-carboxamide], for which the Ki was 1.9 nM in experiment [1] (setting [3]) and 2 nM in experiment [2] (setting [4]).
For `CC(C)[C@@H](NC(=O)c1cc(=O)[nH]c(-c2ccccc2)n1)c1ccc(S(F)(F)(F)(F)F)cc1` [Example 388, N-{(1R)-2-methyl-1-[4-(pentafluoro-λ^6-sulfanyl)phenyl]propyl}-6-oxo-2-phenyl-1,6-dihydropyrimidine-4-carboxamide], the Ki worked out at 4.7 nM in experiment [1] (setting [3]) and 3.9 nM in experiment [2] (setting [4]).
Consider `C[C@@H](NC(=O)c1cc(=O)[nH]c(C2CC2)n1)c1cc(F)c(C(F)(F)F)c(F)c1` [Example 218, 2-cyclopropyl-N-{(1R)-1-[3,5-difluoro-4-(trifluoromethyl)phenyl]ethyl}-6-oxo-1,6-dihydropyrimidine-4-carboxamide], for which the results for the Ki in experiment [1] (setting [5]) and in experiment [2] (setting [6]) were 104 nM and 56 nM, respectively.
The like results for `C[C@@H](NC(=O)c1cc(=O)[nH]c(-c2ccccc2)n1)c1ccc(OC(F)(F)F)cc1` [Example 275, 6-oxo-2-phenyl-N-{(1R)-1-[4-(trifluoromethoxy)phenyl]ethyl}-1,6-dihydropyrimidine-4-carboxamide] were, in that order, 4.5 nM and 3 nM.
`COc1ccc(Cc2nc(C(=O)N[C@@H](c3ccc(SC(F)(F)F)c(F)c3)C(C)C)cc(=O)[nH]2)cc1` [Example 470, N-[(1R)-1-{3-fluoro-4-[(trifluoromethyl)sulfanyl]phenyl}-2-methylpropyl]-2-(4-methoxybenzyl)-6-oxo-1,6-dihydropyrimidine-4-carboxamide]: the Ki in experiment [1] (setting [3]) was determined as 1.2 nM; in experiment [2] (setting [4]), 1.3 nM.
`C[C@@H](NC(=O)c1cc(=O)[nH]c(-c2ncccn2)n1)c1ccc(C2CC2)cc1` [Example 250, N-[(1R)-1-(4-cyclopropylphenyl)ethyl]-6-oxo-1,6-dihydro-2,2′-bipyrimidine-4-carboxamide]: the inhibition constant (Ki) in experiment [1] (setting [5]) amounted to 5.3 nM; in experiment [1] (setting [3]), 5.4 nM; in experiment [2] (setting [4]), 6.3 nM.

By Ki is commonly meant a measure of affinity in units of concentration, obtained from inhibition or displacement.
